# Measured values published in patent US6391911B1, “Coadministration of lucanthone and radiation for treatment of cancer” (priority 1999, dated 2002).
# “Also recorded” adds a separate entry of the source. Structures can show the parent of a compound that is named as a salt. Starred links: 1 amine or outer side, 2 acyl side, 3 side chain; linkers in the order of their positions; H or OH if unused. Positions of bridges follow the written chain, without caps; N, C: chain ends. Non-standard residues stand in square brackets, D forms with d. Residues, ends and D or L forms follow the SMILES beside them. Chains are numbered I, II in the order given. Actinocin(9to1) = Cc1c2oc3c(C)ccc(C(=O)[*:1])c3nc-2c(C(=O)[*:2])c(N)c1=O; NMeV = CN[C@H](C(=O)O)C(C)C; Sar = CNCC(=O)O
# What was measured:
# [1] = systemic chemotherapy; cited from earlier work
# [2] = Gamma camera imaging of radiolabeled rat models; format: in vivo; settings: rats; intravenous radiotracer; pinhole collimator
# Procedure: Rats were injected with ^125I-labeled lucanthone and ^99mTc-pertechnetate. Lucanthone hydrochloride used for ^125I labeling was 97.5% pure by HPLC mass spectroscopy (Sterling Winthrop Research Institute, R009CJ). ^125I labeled lucanthone was prepared by a modification of the chloramine T method, to be described in detail in a separate publication [Moran JK, Li Y, Deng HF, Labeling and biodistribution of lucanthone (in preparation)]. The product identity was confirmed by thin layer chromatography. ^99mTc-pertechnetate was obtained from a conventional laboratory supplier. The image acquisitions were performed using a Picker Dyna Camera 4C using Nuclear MAC imaging software running on a Power MAC 8100/80 AV computer. Images were obtained using a pinhole collimator with a collimator to rat distance of 6.5 cm.
# Each animal was imaged using ^99mTc-pertechnetate (3.7 MBq). […] Therefore, a photopenic area in the image corresponds to the location of the rat brain.
# Twenty-four hours following administration of ^99mTc-pertechnetate, ^125I lucanthone was administered to each test animal. Images were acquired in the left lateral position every 10 min after intravenous administration of 1.1 MBq of ^125I lucanthone.
# [3] = reason for use as imaging control; cited from earlier work
# [4] = Tissue distribution of ^3H lucanthone in tumor-bearing mice; format: in vivo, C3H-HeHa mice
# Procedure: Ten six-week-old 18-20 gram female C3H-HeHa mice obtained from West Seneca Laboratories (West Seneca, N.Y.) were injected subcutaneously in the right nipple line with 1.4×10^6 viable C3H-BA mammary adenocarcinoma cells. With such inocula, 1-2-mm tumors were detectable within 3 days. If allowed to grow, they killed the mice in 36-38 days. This highly invasive tumor could grow rapidly from inocula as low as 10^4 cells.
# In order to minimize the influence of tumor size on drug distribution, drug was administered at various times during the course of tumor growth. Each day, from the seventh to eleventh day after injection, two mice were injected intraperitoneally with 1.27 mg^3 H lucanthone methanesulfonate. Lucanthone methanesulfonate, after being labeled by tritium exchange of hydrogen, was 96%-99% pure by thin layer chromatography. Before injection in mice, the specific radioactivity of ^3H lucanthone, originally 135 MBq/mg, was reduced to 67.5 MBq/mg by dilution with unlabeled lucanthone methanesulfonate. The total dose of radioactivity was 8.74 MBq (236 μCi) in 0.44 ml. All mice were sacrificed on the twelfth day, at which time the tumors were all approximately the same size, 7-12 mm in greatest diameter.
# Distribution of tritium-labeled material in tissues represents lucanthone and its metabolites. Following sacrifice by cervical dislocation, the wet weight of samples of various organ or tumor tissue was determined immediately. Samples (about 50 mg each) were placed in glass scintillation vials with metal foil-lined caps. An alkaline tissue solubilizer, Protosol (DuPont—NEN), was added for digestion; radioactivity was determined by liquid scintillation techniques, as recommended by the manufacturer. Quench corrections were made for each sample to avoid interference from colored substances in individual samples. Hair was shaved from the skin samples to avoid its contribution to the weight of the sample.
# [5] = Tolerability in human clinical studies; format: in vivo
# Procedure: Cancer patients were administered lucanthone hydrochloride in a total dose of 10 mg/Kg per day. The patients were given the drug in three divided doses in order to maintain blood and tissue levels. […] Lucanthone hydrochloride 250 mg tablets for clinical use [GRH/0/1581] were a gift of the Wellcome Foundation. Nausea and other side effects were not observed when patients received 10 mg/Kg.
# Standard whole brain radiation, 30 Gy with an 8 MeV linear accelerator in ten equal doses over 2 weeks, was given in conjunction with lucanthone at 10 mg/Kg in three doses/day. Patients were assigned to radiation alone or radiation and lucanthone from a table of random numbers. Tumor sizes for each patient were determined before and after therapy independently by two neuroradiologists who had no knowledge of the protocol assignments.
# Both treatments were omitted on weekends and were stopped after ten treatment days. […] No other chemotherapy was given during this time, except steroids, which is standard treatment with patients with brain metastases.
compound,measurement,setting,value
"Cc1c2oc3c(C)ccc(C(=O)N[C@@H]4C(=O)N[C@H](C(C)C)C(=O)N5CCC[C@H]5C(=O)N(C)CC(=O)N(C)[C@@H](C(C)C)C(=O)O[C@@H]4C)c3nc-2c(C(=O)N[C@@H]2C(=O)N[C@H](C(C)C)C(=O)N3CCC[C@H]3C(=O)N(C)CC(=O)N(C)[C@@H](C(C)C)C(=O)O[C@@H]2C)c(N)c1=O [actinomycin D] (I: T[dV]P[Sar][NMeV] / II: T[dV]P[Sar][NMeV]; ester I:1-I:C, II:1-II:C; linker I:N-II:N via Actinocin(9to1))",Crossing of the blood-brain barrier,[1],fail to cross the blood-brain barrier in useful amounts
^99mTc-pertechnetate,Photopenic area at the location of the brain in gamma camera scans,[2],show a photopenic area in the animal's head
same,Crossing of the blood-brain barrier (known property),[3],known not to cross the blood-brain barrier
CCN(CC)CCNc1ccc(C)c2sc3ccccc3c(=O)c12 [^3H lucanthone],^3H label in tumor tissue relative to skin and muscle,"[4]; first and second days following intraperitoneal drug injection, C3H-BA mammary adenocarcinoma",Enrichment of the ^3H label was detected in tumor tissue relative to skin and muscle
same,"^3H lucanthone uptake and removal in brain, lung and spleen",[4]; intraperitoneal injection,little difference
same,^3H label concentration in livers and kidneys compared with tumor,"[4]; intraperitoneal injection, principal excretory organs",higher concentrations were found than in the tumor
COc1cc([C@@H]2c3cc4c(cc3[C@@H](O[C@@H]3O[C@@H]5CO[C@@H](C)O[C@H]5[C@H](O)[C@H]3O)[C@H]3COC(=O)[C@H]23)OCO4)cc(OC)c1O [etoposide],Crossing of the blood-brain barrier,[1],fail to cross the blood-brain barrier in useful amounts; also recorded: crosses the blood-brain barrier poorly
CCN(CC)CCNc1ccc(C)c2sc3ccccc3c(=O)c12 [lucanthone hydrochloride],Tolerability of total dose,"[5]; cancer patients, 10 mg/Kg per day in three divided doses",well tolerated
same,Nausea and other side effects,[5]; patients received 10 mg/Kg,not observed
